Where “and” joins values, the source holds several entries; their conditions need not be identical. Identical values can stand only once. Entries after “also recorded” stand apart in the source; their conditions may differ.
Experiments:
human PBMC [1] = assay: Test compound induced cytokine secretion in human PBMC without LPS, 10 or 26 hours (Phase 1); details: 100 μM, 26 hours, no LPS
Method: Secretion of the cytokines TNF-α (A), IL-1β (B) and IL-6 (C) were measured in supernatant of PBMC cultured in the presence of test compounds using a Luminex platform with the Milliplex MAP Human High Sensitivity T Cell Panel Immunology Multiplex Assay. Results are represented as a mean from 3 separate donors in pg/mL.
Whole blood was collected from 3 human donors and peripheral blood mononuclear cells (PBMC) were isolated using the Ficoll-Paque density gradient method. PBMC were then plated and left untouched for 2 hours to account for a 2 hours pretreatement period (see below for details), and incubated for 8 or 24 hours in a humidified incubator set to maintain 37° C. with 5% CO2, with different concentrations of LPS as per Table 11 in order to determine the optimal stimulation conditions to detect cytokine release. […] RPMI medium alone or supplemented with 0.1% DMSO (to mimic treatment conditions) were used as negative controls.
At the end of the incubation period, supernatant samples were recovered and stored at −80° C. until analysis (in duplicate) using a Luminex platform with the Milliplex MAP Human High Sensitivity T Cell Panel Immunology Multiplex Assay (Cat. No. HSTCMAG-28SK) with the following selected cytokines of interest: IL-1, IL-2, IL-6, IFN-g and TNF-α. Each assay was defined by one calibration curve and 2 sets of QCs and the results were expressed as pg/mL.

human PBMC [2] = assay: LPS stimulated cytokine secretion in human PBMC pretreated with compounds (Phase 2); assay type: cell-based; design: TNF-α concentration in supernatant / IL-1β concentration in supernatant / IL-6 concentration in supernatant / IL-2 concentration in supernatant / IFN-g concentration in supernatant: unit of the concentration uncertain; details: for IL-1β Mean Fold-Change (Relative to LPS alone) / IL-6 Mean Fold-Change (Relative to LPS alone) / TNF-α Mean Fold-Change (Relative to LPS alone): 1 ng/mL LPS stimulation for 8 hours, means from 3 donors; for IL-2 concentration in supernatant / TNF-α concentration in supernatant / IL-1β concentration in supernatant / IFN-g concentration in supernatant / IL-6 concentration in supernatant: 8-hour 1 ng/mL LPS stimulation; for IL-2 concentration in supernatant: LLOQ = 1.698 pg/mL; for TNF-α concentration in supernatant: LLOQ = 2.018 pg/mL; for IL-1β concentration in supernatant: LLOQ = 2.299 pg/mL; for IFN-g concentration in supernatant: LLOQ = 2.792 pg/mL; for IL-6 concentration in supernatant: LLOQ = 0.831
RecQ helicase = molecular target: T1, RecQ helicase (Escherichia coli, UniProt P15043); assay: Cell-free fluorescence molecular beacon helicase assay; assay type: biochemical, E. coli; design: Average rate of reaction / Rate (Triplicate): unit: RFU/min; details: for Fluorescence at 35 minutes, Run 2 / Fluorescence at time 0, Run 2: duplicate, listed as H; for Average rate of reaction: mean of triplicate; for Rate (Triplicate): rate of reaction=(F0-F35)/35; for Change in helicase activity compared to the DMSO control: any of the tested concentrations (0.06-200 μg/mL)
T1 construct: a full-length E. coli helicase, RecQ, was used
T1 sequence (P15043 whole entry): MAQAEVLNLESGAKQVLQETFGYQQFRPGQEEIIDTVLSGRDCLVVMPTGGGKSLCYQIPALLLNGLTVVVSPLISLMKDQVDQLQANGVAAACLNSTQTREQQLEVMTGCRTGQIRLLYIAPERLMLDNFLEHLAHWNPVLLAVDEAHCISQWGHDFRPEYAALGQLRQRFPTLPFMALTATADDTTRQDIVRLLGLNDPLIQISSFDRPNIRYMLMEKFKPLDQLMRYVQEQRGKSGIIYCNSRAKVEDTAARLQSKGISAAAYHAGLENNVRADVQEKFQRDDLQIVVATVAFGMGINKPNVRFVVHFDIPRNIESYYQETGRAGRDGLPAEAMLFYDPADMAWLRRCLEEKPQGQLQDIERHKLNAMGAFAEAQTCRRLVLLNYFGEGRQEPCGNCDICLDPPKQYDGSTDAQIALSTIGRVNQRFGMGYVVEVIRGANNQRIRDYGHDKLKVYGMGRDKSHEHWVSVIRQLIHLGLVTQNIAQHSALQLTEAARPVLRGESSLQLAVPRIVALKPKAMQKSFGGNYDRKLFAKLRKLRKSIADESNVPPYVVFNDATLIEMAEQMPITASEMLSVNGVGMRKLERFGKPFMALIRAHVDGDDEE

[3] = TA 0.06 μg/mL (plate column 4, wells A-C)
[4] = TA 0.2 μg/mL (plate column 5, wells A-C)
[5] = TA 0.6 μg/mL (plate column 6, wells A-C)
[6] = TA 2 μg/mL (plate column 7, wells A-C)
[7] = TA 6 μg/mL (plate column 8, wells A-C)
[8] = TA 60 μg/mL (plate column 10, wells A-C)
[9] = TA 200 + Buffer (plate column 12, wells A-C)

## COc1ccc([C@@H]2CC(=O)c3c(O)cc(O[C@@H]4O[C@H](CO[C@@H]5O[C@@H](C)[C@H](O)[C@@H](O)[C@H]5O)[C@@H](O)[C@H](O)[C@H]4O)cc3O2)cc1O [Hesperidin]
Human PBMC [1]
  Secretion of IL-1β and IL-6, compound alone: in one donor, secretion of IL-1β, and IL-6 was also observed
Human PBMC [2]; 10 mM (so in the source)
  IL-1β Mean Fold-Change (Relative to LPS alone): 1.14
  IL-6 Mean Fold-Change (Relative to LPS alone): 1.10
  TNF-α Mean Fold-Change (Relative to LPS alone): 0.98
Human PBMC [2]; 100 mM (so in the source)
  IL-1β Mean Fold-Change (Relative to LPS alone): 1.30
  IL-6 Mean Fold-Change (Relative to LPS alone): 1.24
  TNF-α Mean Fold-Change (Relative to LPS alone): 1.20
Human PBMC [2]; 200 mM (so in the source), 2 h pretreatment, 1 ng/mL LPS 8 hours
  Effect on LPS stimulated secretion of IL-1b: increase; also recorded: appeared to enhance; also recorded: potentiate
Human PBMC [2]; 200 mM (so in the source)
  IL-1β Mean Fold-Change (Relative to LPS alone): 1.54
  IL-6 Mean Fold-Change (Relative to LPS alone): 1.25
  TNF-α Mean Fold-Change (Relative to LPS alone): 1.14
Human PBMC [2]; Donor 1, 10 (unit uncertain)
  IL-2 concentration in supernatant: <LLOQ
  TNF-α concentration in supernatant: 1889.91 pg/mL
  IL-1β concentration in supernatant: 3059.18 pg/mL
  IFN-g concentration in supernatant: <LLOQ
  IL-6 concentration in supernatant: 1099.07 pg/mL
Human PBMC [2]; Donor 1, 100 (unit uncertain)
  IL-2 concentration in supernatant: <LLOQ
  TNF-α concentration in supernatant: 2577.7 pg/mL
  IL-1β concentration in supernatant: 3955.41 pg/mL
  IFN-g concentration in supernatant: <LLOQ
  IL-6 concentration in supernatant: 1441.95 pg/mL
Human PBMC [2]; Donor 1, 200 (unit uncertain)
  IL-2 concentration in supernatant: <LLOQ
  TNF-α concentration in supernatant: 2290.76 pg/mL
  IL-1β concentration in supernatant: 4853.62 pg/mL
  IFN-g concentration in supernatant: <LLOQ
  IL-6 concentration in supernatant: 1485.45 pg/mL
Human PBMC [2]; Donor 2, 10 (unit uncertain)
  IL-2 concentration in supernatant: <LLOQ
  TNF-α concentration in supernatant: 1091.56 pg/mL
  IL-1β concentration in supernatant: 2855.56 pg/mL
  IFN-g concentration in supernatant: <LLOQ
Human PBMC [2]; Donor 2, 100 (unit uncertain)
  IL-2 concentration in supernatant: <LLOQ
  TNF-α concentration in supernatant: 1254.84 pg/mL
  IL-1β concentration in supernatant: 2344.12 pg/mL
  IFN-g concentration in supernatant: <LLOQ
Human PBMC [2]; Donor 2, 200 (unit uncertain)
  IL-2 concentration in supernatant: <LLOQ
  TNF-α concentration in supernatant: 1621.58 pg/mL
  IL-1β concentration in supernatant: 3244.42 pg/mL
  IFN-g concentration in supernatant: <LLOQ
Human PBMC [2]; Donor 3, 10 (unit uncertain)
  IL-2 concentration in supernatant: <LLOQ
  TNF-α concentration in supernatant: 3632.86 pg/mL
  IL-1β concentration in supernatant: 3800.6 pg/mL
  IFN-g concentration in supernatant: <LLOQ
Human PBMC [2]; Donor 3, 100 (unit uncertain)
  IL-2 concentration in supernatant: <LLOQ
  TNF-α concentration in supernatant: 3808.52 pg/mL
  IL-1β concentration in supernatant: 4941.84 pg/mL
  IFN-g concentration in supernatant: <LLOQ
Human PBMC [2]; Donor 3, 200 (unit uncertain)
  IL-2 concentration in supernatant: <LLOQ
  TNF-α concentration in supernatant: 2731.72 pg/mL
  IL-1β concentration in supernatant: 4883.06 pg/mL
  IFN-g concentration in supernatant: <LLOQ
RecQ helicase; 0.06 μg/mL
  Fluorescence at 35 minutes, Run 2: 2987 RFU and 3023 RFU
  Fluorescence at time 0, Run 2: 5870 RFU and 7788 RFU
  Average rate of reaction: 61.47
RecQ helicase; 0.2 μg/mL
  Average rate of reaction: 53.5
  Rate (Triplicate): 47.51 and 71.4 and 41.6
RecQ helicase; 0.6 μg/mL
  Fluorescence at 35 minutes, Run 2: 2677 RFU and 2621 RFU
  Fluorescence at time 0, Run 2: 9523 RFU and 7721 RFU
  Average rate of reaction: 107.9714
RecQ helicase; 2 μg/mL
  Fluorescence at 35 minutes, Run 2: 2624 RFU and 2801 RFU
RecQ helicase; 2.0 μg/mL
  Average rate of reaction: 110.1429
  Rate (Triplicate): 108.1714 and 140.8 and 81.46
RecQ helicase; 6 μg/mL
  Fluorescence at 35 minutes, Run 2: 2526 RFU and 2818 RFU
  Fluorescence at time 0, Run 2: 8127 RFU and 9570 RFU
RecQ helicase; 6.0 μg/mL
  Average rate of reaction: 169.7048
RecQ helicase; 20 μg/mL
  Fluorescence at 35 minutes, Run 2: 3653 RFU and 3927 RFU
  Fluorescence at time 0, Run 2: 4464 RFU and 8870 RFU
RecQ helicase; 20.0 μg/mL
  Average rate of reaction: 55.09
RecQ helicase; 60 μg/mL
  Fluorescence at 35 minutes, Run 2: 4250 RFU and 4180 RFU
  Fluorescence at time 0, Run 2: 4134 RFU and 3133 RFU
RecQ helicase; 60.0 μg/mL
  Average rate of reaction: 58.1
RecQ helicase; 200 μg/mL
  Fluorescence at 35 minutes, Run 2: 3913 RFU and 4063 RFU
RecQ helicase; 200.0 μg/mL
  Average rate of reaction: 90.4381
RecQ helicase; [3]
  Fluorescence at 0:00:00, Run 1: 5759 RFU and 9125 RFU and 10456 RFU
  Fluorescence at 0:35:00, Run 1: 5467 RFU and 6877 RFU and 6542 RFU
RecQ helicase; [4]
  Fluorescence at 0:00:00, Run 1: 7735 RFU and 8642 RFU and 7853 RFU
  Fluorescence at 0:35:00, Run 1: 6072 RFU and 6143 RFU and 6397 RFU
RecQ helicase; [5]
  Fluorescence at 0:00:00, Run 1: 7559 RFU and 14137 RFU and 7347 RFU
  Fluorescence at 0:35:00, Run 1: 5304 RFU and 6502 RFU and 5900 RFU
RecQ helicase; [6]
  Fluorescence at 0:00:00, Run 1: 10359 RFU and 11454 RFU and 8360 RFU
  Fluorescence at 0:35:00, Run 1: 6573 RFU and 6526 RFU and 5509 RFU
RecQ helicase; [7]
  Fluorescence at 0:00:00, Run 1: 10222 RFU and 10590 RFU and 17264 RFU
  Fluorescence at 0:35:00, Run 1: 6164 RFU and 5213 RFU and 8880 RFU
RecQ helicase; [8]
  Fluorescence at 0:00:00, Run 1: 10452 RFU and 7252 RFU and 7210 RFU
  Fluorescence at 0:35:00, Run 1: 7008 RFU and 6217 RFU and 5588 RFU
RecQ helicase; TA 200 μg/mL (plate column 11, wells A-C)
  Fluorescence at 0:35:00, Run 1: 7231 RFU and 6648 RFU and 7799 RFU
RecQ helicase; [9]
  Fluorescence at 0:00:00, Run 1: 10477 RFU and 15660 RFU and 9770 RFU
  Fluorescence at 0:35:00, Run 1: 9155 RFU and 9497 RFU and 7774 RFU
RecQ helicase
  Change in helicase activity compared to the DMSO control: no observed clear change
RecQ helicase; listed as hesperidin
  Change in helicase activity compared to the DMSO control: no effect
